# Reference: article PMC2832019, “In Vitro Metabolic and Mitogenic Signaling of Insulin Glargine and Its Metabolites” (PLoS ONE, 2010)
# Key:
# human IR-A = experiment: IR-A autophosphorylation (In-Cell Western); assay type: cell-based; settings: for EC50: CHO cells overexpressing IR-A, 15 min at 37°C, In-Cell Western, means ± SEM, at least three times, read-out: IR-A auto-phosphorylation EC50
# Source text: (§1) CHO cells expressing either the IR-A or the IR-B isoform were used for IR autophosphorylation assays using In-Cell Western. For the analysis of IGF1R autophosphorylation the receptor was overexpressed in a mouse embryo fibroblast 3T3 Tet off cell line (BD Bioscience, Heidelberg, Germany) that was stably transfected with IGF1R tetracycline-regulatable expression plasmid resulting in the expression of ∼2.6×10^5 IGF1R per cell (as determined by FACS analysis, unpublished data). In order to determine the receptor tyrosine phosphorylation level, cells were seeded into 96-well plates and grown for 48 h. Cells were serum starved with serum-free medium αMEM (PAN Biotech GmbH, Aidenbach, Germany) for 3–4 h. […] After incubation the medium was discarded and the cells were fixed in 3.75% freshly prepared para-formaldehyde for 20 min. Cells were permeabilized with 0.1% Triton-X-100 in PBS for 20 min. Blocking was performed with Odyssey blocking buffer (LI-COR, Bad Homburg, Germany) overnight at 4°C. Anti-pTyr 4G10 (Millipore, Schwalbach, Germany) was incubated for 2 h at room temperature. After incubation of the primary antibody, cells were washed with PBS+0.1% Tween20. The secondary anti-mouse-IgG-800-CW antibody (Rockland, Gilbertsville, PA, USA) was incubated for 1 h. Results were normalized by the quantification of DNA with TO-PRO3 dye (Invitrogen, Karlsruhe, Germany). Data were obtained as relative units (RU) and are presented as fold over basal.
# (§2) For each experiment, IC50 or EC50 values were obtained using the 4-parameter logistic model according to Ratkowsky and Reedy (1986). The adjustment was obtained by non-linear regression using the Levenberg-Marquardt algorithm in SAS v9.1.3 software via Biost@t-Speed V2.0-LTS internal application. If necessary, lower and upper asymptotes were set to 0 and 100, respectively.
# (§3) The binding of a constant concentration of [^125I]insulin to plasma membranes from CHO cells overexpressing either IR-A or IR-B was measured in presence of increasing concentrations of unlabeled competing ligand after incubation at room temperature for 12 h. All data has been corrected for non-specific binding and are expressed as percentage of [^125I]insulin in absence of competing ligand. To analyze the insulin-stimulated activation and subsequent autophosphorylation of the insulin receptor CHO cells overexpressing the human IR-A (C) or IR-B (D) were stimulated for 15 min at 37°C with increasing concentrations of peptides, then the cells were fixed with 3.7% PFA and the amount of phosphotyrosines was analyzed via In-Cell Western. The data represent mean values ± SEM of at least 3 individual experiments measured in quadruplicate.
# (§4) Insulin receptor autophosphorylation was studied using CHO cells overexpressing either IR-A or IR-B. For detection an immunocytochemical microplate assay (In-Cell Western) based on two-colour fluorescence was applied.
# human IR-B = experiment: IR-B autophosphorylation (In-Cell Western); assay type: cell-based; settings: for EC50: CHO cells overexpressing IR-B, 15 min at 37°C, In-Cell Western, means ± SEM, at least three times, read-out: IR-B auto-phosphorylation EC50
# Source text: as §1, §2, §3, §4
# Saos-2 cells = experiment: Mitogenic potency: thymidine incorporation in Saos-2 cells; assay type: cell-based, human; settings: for EC50: [2-^14C]-thymidine incorporation, 19 h stimulation plus 6 h thymidine, serum-free, 37°C, octuplicate samples, means ± SEM, at least three times; for mitogenicity in words: relative to glargine and human insulin
# Method: The human osteosarcoma cell line Saos-2 was obtained in frozen aliquots from the European Collection of Cell Cultures (ECACC, Salesbury, UK). Cells were grown in McCoy's 5a medium (Gibco, Grand Island, NY, USA) supplemented with 10% fetal calf serum (PAN Biotech GmbH, Aidenbach, Germany) and 2 mM (final) L-glutamine (Sigma Aldrich, Irvine, UK). Subconfluent cultures (9-15×10^6 cells per 225 cm^2 flask) were used to determine the mitogenic activity of the test compounds.
# For measuring thymidine incorporation 40,000 cells were seeded per well of a 96-well Cytostar-T scintillation microplate (GE Healthcare, Amersham, UK) and the plates were incubated overnight at 37°C in a humidified atmosphere containing 5% CO2. The serum-containing medium was removed and replaced by 200 µL serum-free McCoy's 5a medium supplemented with 0.5% (w/v) BSA (Gibco, Grand Island, NY, USA), 2 mM L-glutamine and antibiotics (penicillin 100 units, streptomycin 100 units, amphotericin B 0.25 µg/mL final, Gibco, Grand Island, NY, USA). The plates were incubated for 4 hours at 37°C in a humidified atmosphere containing 5% CO2. 150 µL of the medium were removed and substituted by 150 µL of serum-free medium containing the different insulins or IGF-1 (Cell Sciences, Canton, MA, USA) at the indicated concentrations and the plates were incubated at 37°C in a humidified atmosphere containing 5% CO2. After 19 hours 10 µL of [2-^14C]-thymidine solution ([…], 3.7 MBq/mL) diluted in serum-free McCoy's 5a medium were added per well to yield a final concentration of 500 nCi/mL and the plates were incubated for 6 hours at 37°C in a humidified atmosphere containing 5% CO2. ^14C-thymidine incorporation was measured in a Wallac 1450 Micro Beta Trilux Scintillation counter. Dose-response curves were obtained by testing ten different concentrations of the ligands with every concentration tested by octuplicate samples.
# as §2
# Figure 4 Activity of insulin analogs on the human IGF1R and mitogenic potential in Saos-2 cells. Analysis of binding to the human IGF1R using [^125I]IGF-1 as radioactive ligand (A) and analysis of the insulin-stimulated autophosphorylation of the human IGF1R overexpressed in MEF cells (B) were done as described in figure 2 and Materials and Methods. Data are given as means ± SEM. […] Confluent cells were starved for 4 h and then incubated for 19 h with increasing concentrations of IGF-1, insulin or analog in serum free medium. [^14C]thymidine was added for further 6 h and the radioactivity measured in a Wallac Micro Scintillation counter. Data are given as means ± SEM from octuplicate sample.
substance,measurement,setting,value
Human insulin: human insulin produced by recombinant DNA techniques or enzymatic semisynthesis,EC50,human IR-A,11 ± 1.3 nM
same,EC50,human IR-B,11.7 ± 1.4 nM
same,EC50,Saos-2 cells,12.2 ± 0.27 nM
IGF-1: IGF-1 obtained from R&D Systems and Cell Sciences,EC50,human IR-A,449 ± 61.7 nM
same,EC50,human IR-B,> 1000 nM
same,EC50,Saos-2 cells,0.22 ± 0.05 nM
[Asp^B10]insulin,EC50,human IR-A,5.1 ± 0.7 nM
same,EC50,human IR-B,3.32 ± 0.78 nM
same,EC50,Saos-2 cells,1.52 ± 0.15 nM
"[Gly^A21,Arg^B31,Arg^B32]insulin [Glargine]",EC50,human IR-A,18.4 ± 2.4 nM
same,decrease in IR-A autophosphorylation activity,human IR-A; relative to human insulin,30–50%
same,EC50,human IR-B,23.6 ± 2.1 nM
same,decrease in IR-B autophosphorylation activity,human IR-B; relative to human insulin,30–50%
same,EC50,Saos-2 cells,1.61 ± 0.26 nM
"[Gly^A21,Arg^B31]insulin [Glargine IM]",EC50,human IR-A,23.1 ± 2.7 nM
same,EC50,human IR-B,20.9 ± 1.3 nM
same,EC50,Saos-2 cells,3.75 ± 0.31 nM
same,mitogenicity in words,Saos-2 cells,reduced relative to insulin glargine
"[Gly^A21,des-Thr^B30]insulin [Glargine M2]",EC50,human IR-A,19.2 ± 1.6 nM
same,EC50,human IR-B,21.4 ± 2.3 nM
same,EC50,Saos-2 cells,17.9 ± 6.5 nM
same,mitogenicity in words,Saos-2 cells,significantly less mitogenic than glargine and comparable to normal insulin
[Gly^A21]insulin [Glargine M1],EC50,human IR-A,18.6 ± 2.5 nM
same,EC50,human IR-B,18.1 ± 1.7 nM
same,EC50,Saos-2 cells,16.2 ± 2.35 nM
same,mitogenicity in words,Saos-2 cells,significantly less mitogenic than glargine and comparable to normal insulin
